Reference: paper PMC5924614 (European journal of medicinal chemistry, 2018)

How the values were obtained:
[1] = biological target: NPM-ALK fusion protein (Homo sapiens, UniProt P06748+Q9UM73); experiment: NPM-ALK fusion protein levels in SU-DHL-1 cells by western blot; format: cell-based; conditions: for duration of NPM-ALK degradation and ALK signaling inhibition / time at which significant (>50%) NPM-ALK degradation was achieved / time of maximum degradation of NPM-ALK / effect on fused ALK (NPM-ALK) protein levels: 30 nM; for duration of NPM-ALK degradation and ALK signaling inhibition / time at which significant (>50%) NPM-ALK degradation was achieved / time of maximum degradation of NPM-ALK: time course; for reduction of the ALK fusion protein levels: 100 nM; for reduction of the ALK fusion protein levels / effect on fused ALK (NPM-ALK) protein levels: 16 h; for hook effect: up to 100 nM degrader
[2] = system: NCI-H2228 cells; experiment: NCI-H2228 cell proliferation, CellTiter-Glo cell viability assay; format: cell-based, human
[3] = system: STAT3 tyrosine 705 (Y705) phosphorylation; experiment: STAT3 Y705 phosphorylation in SU-DHL-1 cells by western blot; format: cell-based, human; conditions: for inhibition at 0.1 µM: Homo sapiens, SU-DHL-1, read-out: inhibition of STAT3 Y705 phosphorylation; for treatment time after which p-STAT3 was significantly inhibited: SU-DHL-1 cells, 30 nM, time course
[4] = system: EML4-ALK fusion protein variant 3; conditions: NCI-H2228 cells; for duration of EML4-ALK degradation and signaling pathway inhibition / time of maximum degradation of EML4-ALK: 60 nM, time course; for reduction of EML4-ALK protein levels / effect on EML4-ALK protein levels: 100 nM, 16 h
[5] = system: SU-DHL-1 cells; experiment: cell death / toxicity observed in SU-DHL-1 cells during blot experiments; format: cell-based
[6] = system: ALK tyrosine 1507 (Y1507) phosphorylation (Y527 in NPM-ALK); experiment: ALK Y1507 phosphorylation in SU-DHL-1 cells by western blot; format: cell-based, human; conditions: for inhibition at 0.1 µM: Homo sapiens, read-out: inhibition of ALK Y1507 phosphorylation; for treatment time after which p-ALK was significantly inhibited: SU-DHL-1 cells, 30 nM, time course
[7] = tolerability in the mouse PK study; conditions: 50 mg/kg IP
[8] = mouse pharmacokinetic; format: in vivo, male Swiss Albino mice; conditions: single 50 mg/kg IP
[9] = system: SU-DHL-1 cells; experiment: SU-DHL-1 cell proliferation, CellTiter-Glo luminescent cell viability assay; format: cell-based, human; conditions: 3 days
[10] = system: ALK downstream signaling (p-ALK, p-STAT3); experiment: ALK downstream signaling pathway inhibition in SU-DHL-1 cells by western blot; format: cell-based, human; conditions: 30 nM

SMILES	duration of NPM-ALK degradation and ALK signaling inhibition [1]	time at which significant (>50%) NPM-ALK degradation was achieved [1] [h]	time of maximum degradation of NPM-ALK [1] [h]	reduction of the ALK fusion protein levels [1]	hook effect [1]	sensitivity of proliferation in comparison with SU-DHL-1 cells [2]	inhibition at 0.1 µM [3] [%]	treatment time after which p-STAT3 was significantly inhibited [3] [h]	duration of EML4-ALK degradation and signaling pathway inhibition [4]	time of maximum degradation of EML4-ALK [4] [h]	reduction of EML4-ALK protein levels [4]	concentrations leading to significant cell death / toxic to cells [5]	inhibition at 0.1 µM [6] [%]	treatment time after which p-ALK was significantly inhibited [6] [h]	effect on fused ALK (NPM-ALK) protein levels [1]	cell growth inhibition [9]	effect on EML4-ALK protein levels [4]	fold less active than corresponding degrader in signaling pathway inhibition [10]	also measured
Cc1cc(Nc2ncc(Cl)c(Nc3ccccc3S(=O)(=O)C(C)C)n2)c(OC(C)C)cc1C1CCN(CC(=O)NCCOCCOCCOCCOCCOCCNc2cccc3c2C(=O)N(C2CCC(=O)NC2=O)C3=O)CC1 (stereo not shown) [Compound 5, 2-(4-(4-((5-Chloro-4-((2-(isopropylsulfonyl)phenyl)amino)pyrimidin-2-yl)amino)-5-isopropoxy-2-methylphenyl)piperidin-1-yl)-N-(17-((2-(2,6-dioxopiperidin-3-yl)-1,3-dioxoisoindolin-4-yl)amino)-3,6,9,12,15-pentaoxaheptadecyl)acetamide]	at least 24 hours	4	16	Over 90%	did not observe the “hook effect”	less sensitive	> 90	2	at least 24 hours	16	Over 90%	above 100 nM	> 90	2					
Cc1cc(Nc2ncc(Cl)c(Nc3ccccc3S(=O)(=O)C(C)C)n2)c(OC(C)C)cc1C1CCN(CC(=O)NCCNc2cccc3c2C(=O)N(C2CCC(=O)NC2=O)C3=O)CC1 (stereo not shown) [Compound 6, 2-(4-(4-((5-chloro-4-((2-(isopropylsulfonyl)phenyl)amino)pyrimidin-2-yl)amino)-5-isopropoxy-2-methylphenyl)piperidin-1-yl)-N-(2-((2-(2,6-dioxopiperidin-3-yl)-1,3-dioxoisoindolin-4-yl)amino)ethyl)acetamide]	at least 24 hours	4	16	Over 90%	did not observe the “hook effect”	less sensitive	> 90	2	at least 24 hours	16	Over 90%	above 100 nM	> 90	2					clinical signs [7]: no clinical signs were observed; tolerability [7]: well tolerated; highest plasma concentration [8]: 3,000 nM; time of highest plasma concentration post dosing [8]: 2 h
Cc1cc(Nc2ncc(Cl)c(Nc3ccccc3S(=O)(=O)C(C)C)n2)c(OC(C)C)cc1C1CCN(CC(=O)NCCOCCOCCOCCOCCOCCNc2cccc3c2C(=O)N(C2CCC(=O)N(C)C2=O)C3=O)CC1 (stereo not shown) [Compound 7, 2-(4-(4-((5-Chloro-4-((2-(isopropylsulfonyl)phenyl)amino)pyrimidin-2-yl)amino)-5-isopropoxy-2-methylphenyl)piperidin-1-yl)-N-(17-((2-(1-methyl-2,6-dioxopiperidin-3-yl)-1,3-dioxoisoindolin-4-yl)amino)-3,6,9,12,15-pentaoxaheptadecyl)acetamide]						less sensitive									did not reduce	incomplete inhibition	did not significantly affect	over 10 fold	
Cc1cc(Nc2ncc(Cl)c(Nc3ccccc3S(=O)(=O)C(C)C)n2)c(OC(C)C)cc1C1CCN(CC(=O)NCCNc2cccc3c2C(=O)N(C2CCC(=O)N(C)C2=O)C3=O)CC1 (stereo not shown) [Compound 8, 2-(4-(4-((5-chloro-4-((2-(isopropylsulfonyl)phenyl)amino)pyrimidin-2-yl)amino)-5-isopropoxy-2-methylphenyl)piperidin-1-yl)-N-(2-((2-(1-methyl-2,6-dioxopiperidin-3-yl)-1,3-dioxoisoindolin-4-yl)amino)ethyl)acetamide]						less sensitive									did not reduce	incomplete inhibition	did not significantly affect	over 10 fold	
Cc1cc(Nc2ncc(Cl)c(Nc3ccccc3S(=O)(=O)C(C)C)n2)c(OC(C)C)cc1C1CCNCC1 [ceritinib, reference compound]												above 100 nM			did not significantly change		did not significantly affect		inhibition of downstream signaling compared with the degraders [10]: more potent
